Laboratory results published in article PMC7037862, “Tricyclic Nucleobase Analogs and Their Ribosides as Substrates and Inhibitors of Purine-Nucleoside Phosphorylases III. Aminopurine Derivatives” (Molecules, 2020).
Changes are numbered by the printed parent chain. Names and notes keep the numbering of the source. Where two headings read alike, the source gives them in different places.

Columns and labels:
calf PNP-wt = target: T1, calf PNP-wt (Bos taurus, UniProt P55859); test: Enzymatic phosphorolysis of ribosides, calf PNP wild type; format: biochemical; settings: for Km: 40 mM phosphate buffer pH 7; for Vmax (Relative): relative to Vmax of guanosine phosphorolysis (=100)
T1 construct: made in house; host or cells: E. coli
T1 sequence (P55859 1-289): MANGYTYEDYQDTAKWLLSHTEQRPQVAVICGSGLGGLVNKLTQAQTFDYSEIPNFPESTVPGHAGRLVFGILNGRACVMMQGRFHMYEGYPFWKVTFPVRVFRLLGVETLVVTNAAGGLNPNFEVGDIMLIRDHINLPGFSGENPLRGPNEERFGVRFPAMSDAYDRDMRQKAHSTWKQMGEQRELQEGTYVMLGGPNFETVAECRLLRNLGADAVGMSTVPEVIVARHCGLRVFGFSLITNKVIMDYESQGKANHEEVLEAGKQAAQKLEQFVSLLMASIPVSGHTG
Protocol: (§1) Recombinant E. coli PNP, calf spleen PNP, and their mutated forms were expressed in E. coli and purified according to the procedures described earlier. Enzyme concentrations were calculated per monomer.
(§2) Enzymatic ribosylation reactions were carried out in 1 mL cuvettes (pathlength 4 mm) in ~50 mM HEPES buffer, pH 7.3, using 0.5 mM R1P as a ribose source. Reactions were followed fluorimetrically (see Section 2.4). On a larger scale (2–4 mg), the reactions were run in Eppendorf tubes, volume 2–3 mL, using either R1P (3–10 mM) or 7-methylguanosine as ribose sources. Products were purified by semi-preparative HPLC, concentrated and the final solutions kept frozen. Their structure has been confirmed by NMR (see Section 2.4 and Supplementary Materials) and by MS: comp. 3: m/z = 292.10385, comp. 4: m/z = 292.10400, comp. 5: m/z = 292.10398, calculated for C12H13N5O4 + H: 292.10403. Phosphorolysis reactions were run in 40–50 mM phosphate buffer, pH 7.0 or 6.5, and followed spectrally or fluorimetrically. Kinetic parameters were calculated by standard methods.

[1] = Ionization constants (pKa), determined spectrophotometrically; format: physicochemical; settings: phosphate and/or acetate buffers
Protocol: Fluorescence spectra were measured on a Varian Eclipse instrument (Varian Corp., Palo Alto, CA, USA), and UV absorption kinetic experiments were performed on a Cary 5000 (Varian Corp., Palo Alto, CA, USA) thermostated spectrophotometer. Fluorescence yields were determined relative to tryptophan (0.15) or 1,N^6-ethenoadenosine in water (0.56, see ref. [2]). Emission spectra were measured in semi-micro cuvettes, pathlength 4 mm, to diminish the inner-filter effect. Typical spectral resolution was 2.5 nm. The ionization constants (pKa values) were determined spectrophotometrically using 20–50 mM phosphate and/or acetate buffers.

E. coli PNP-wt [2] = target: T2, E. coli PNP-wt (Escherichia coli, UniProt P0ABP8); test: Enzymatic phosphorolysis of ribosides, E. coli PNP wild type; format: biochemical; settings: for Vmax (Relative): relative to Vmax of guanosine phosphorolysis (=100)
T2 construct: made in house; host or cells: E. coli
T2 sequence (P0ABP8 2-239 limits assumed): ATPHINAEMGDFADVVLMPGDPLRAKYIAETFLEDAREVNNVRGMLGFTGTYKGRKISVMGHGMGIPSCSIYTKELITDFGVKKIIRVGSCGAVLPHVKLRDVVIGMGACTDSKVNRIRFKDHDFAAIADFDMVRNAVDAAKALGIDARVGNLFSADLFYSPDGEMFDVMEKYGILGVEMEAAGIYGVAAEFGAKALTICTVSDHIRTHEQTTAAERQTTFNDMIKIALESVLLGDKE
Protocol: as §1, §2

E. coli PNP-wt [3] = target: T2, E. coli PNP-wt; test: Enzymatic ribosylation with α-D-ribose-1-phosphate, E. coli PNP wild type; format: biochemical; settings: for Vmax (Relative): ribosylation, relative to guanine ribosylation rate (=100)
Protocol: as §1, §2

calf spleen PNP (wt) = target: T3, calf spleen PNP (wt) (Bos taurus, UniProt P55859); test: Enzymatic ribosylation with α-D-ribose-1-phosphate, calf PNP wild type; format: biochemical; settings: for Vmax (Relative): ribosylation, relative to guanine ribosylation rate (=100); for ribosylation activity: trimeric calf spleen PNP, wild type
T3 construct: made in house; host or cells: E. coli
T3 sequence (P55859 1-289): T1 sequence (P55859 1-289)
Protocol: as §1, §2

calf PNP N243D = target: T4, calf PNP N243D (Bos taurus, UniProt P55859, N243D); test: Enzymatic ribosylation with α-D-ribose-1-phosphate, calf PNP N243D mutant; format: biochemical; settings: for Vmax (Relative): ribosylation, relative to guanine ribosylation rate (=100)
T4 construct: made in house; host or cells: E. coli
T4 sequence (P55859 1-289 N243D): T1 sequence (P55859 1-289) with N243D
Protocol: as §1, §2

E. coli PNP S90A = target: T5, E. coli PNP S90A (Escherichia coli, UniProt P0ABP8, S91A); test: Enzymatic ribosylation with α-D-ribose-1-phosphate, E. coli PNP S90A mutant; format: biochemical
T5 construct: made in house; host or cells: E. coli
Protocol: as §1, §2

E. coli PNP D204N = target: T6, E. coli PNP D204N (Escherichia coli, UniProt P0ABP8, D205N); test: Enzymatic ribosylation with α-D-ribose-1-phosphate, E. coli PNP D204N mutant; format: biochemical
T6 construct: made in house; host or cells: E. coli
Protocol: as §1, §2

E. coli PNP = target: T7, E. coli PNP (Escherichia coli, UniProt P0ABP8); test: Fluorescence titration of E. coli PNP with ligand (enzyme-ligand complexes); format: binding; settings: in the presence of phosphate, 40 mM, pH 7, 20 °C
T7 construct: made in house; host or cells: E. coli
Protocol: Additionally, the fluorescence excitation spectra reveal fluorescence energy transfer (FRET) from the protein to the complexed ligand, since they show marked enhancement in the region 270–280 nm, where the tyrosine residues of the PNP molecule absorb (Figure 10).
Figure 10 Changes in fluorescence excitation (a) and emission spectra (b), observed during the titration of E. coli PNP with N^2,3-etheno-2-aminopurine (2). […] Spectra of the free ligand (3.5 μM) are given for comparison (points). Excitation spectrum of the protein, monitored at 310 nm, is given in black. Conditions: 40 mM phosphate, pH 7, at 20 °C. Concentration of protein was 10.1 μM (per subunit); that of the titrant was 0 to 3.5 μM. Lower panels: Fluorescence difference spectra, calculated from data presented on panels (a) and (b), (c) difference excitation (observed at 380 nm), (d) difference emission spectra, excited at 275 nm. Substrate concentrations are 0.17, 0.69, 1.37, 2.36 and 3.31 μM.
Etheno-tubercidine (6) forms somewhat similar fluorescent complexes with the E. coli PNP. As shown below, FRET from the protein to the ligand is evident in the excitation spectra (Figure 11), and the ligand fluorescence blue shifted from 415 to ca. 390 nm (Figure 11b,c). In this case more than 60% of protein fluorescence is quenched when protein binding sites are saturated (cf. Figure 11). […]

[4] = substrate: c1cn2c(n1)ncc1nc[nH]c12; test: Enzymatic ribosylation with α-D-ribose-1-phosphate, E. coli PNP wild type; format: biochemical
Protocol: as §1, §2

[5] = substrate: OC[C@H]1O[C@@H](n2ccn3cc4ncnc-4nc23)[C@H](O)[C@@H]1O; test: Enzymatic phosphorolysis of ribosides, E. coli PNP wild type; format: biochemical; settings: other: phosphorolysis, E. coli PNP-wt, 40 mM phosphate buffer pH 7
Protocol: as §1, §2

[6] = substrate: OC[C@H]1O[C@@H](n2ccn3c4ncnc-4cnc23)[C@H](O)[C@@H]1O; test: as above; format: biochemical; settings: other: phosphorolysis, E. coli PNP-wt, 40 mM phosphate buffer pH 7
Protocol: as §1, §2

[7] = substrate: c1cn2c(n1)ncc1nc[nH]c12; test: Enzymatic ribosylation with α-D-ribose-1-phosphate, calf PNP wild type; format: biochemical; settings: other: ribosylation by R1P, calf-wt PNP, 40 mM HEPES pH 7
Protocol: as §1, §2

[8] = substrate: OC[C@H]1O[C@@H](n2ccn3c4ncnc-4cnc23)[C@H](O)[C@@H]1O; test: Enzymatic phosphorolysis of ribosides, calf PNP wild type; format: biochemical; settings: other: phosphorolysis, calf PNP-wt, 40 mM phosphate buffer pH 7
Protocol: as §1, §2

[9] = substrate: c1cn2c(n1)ncc1nc[nH]c12; test: Enzymatic ribosylation with α-D-ribose-1-phosphate, calf PNP N243D mutant; format: biochemical; settings: other: ribosylation by R1P, 40 mM HEPES pH 7
Protocol: as §1, §2

[10] = protonation, read-out: pKa (protonation)
[11] = acidic dissociation, read-out: pKa (acidic dissociation of the imidazole proton)
[12] = ribosylation by R1P, 40 mM HEPES pH 7
[13] = ribosylation, relative to guanine ribosylation rate (=100)

## OC[C@H]1O[C@@H](n2ccn3cc4ncnc-4nc23)[C@H](O)[C@@H]1O [Compound 4, 1,N^2-etheno-2-aminopurine-N^2-β-D-riboside]
Calf PNP-wt
  Km: nr
  Vmax (Relative): <0.1
[1]; [10]
  pKa: ~6.3
E. coli PNP-wt [2]
  Vmax (Relative): 4

## OC[C@H]1O[C@@H](n2cnc3cn4ccnc4nc32)[C@H](O)[C@@H]1O [Compound 3, 1,N^2-etheno-2-aminopurine-N^9-β-D-riboside]
Calf PNP-wt
  Km: nr
  Vmax (Relative): <0.1
E. coli PNP-wt [2]; 40 mM phosphate buffer pH 7
  Km: nr
E. coli PNP-wt [2]
  Vmax (Relative): <1

## OC[C@H]1O[C@@H](n2ccn3c4ncnc-4cnc23)[C@H](O)[C@@H]1O [Compound 5, N^2,3-etheno-2-aminopurine-N^2-β-D-riboside]
Calf PNP-wt
  Vmax (Relative): 3
[1]; [10]
  pKa: 6.15
E. coli PNP-wt [2]
  Vmax (Relative): 115

## c1cn2cc3nc[nH]c3nc2n1 [Compound 1, 1,N^2-etheno-2-aminopurine]
[1]; [11]
  pKa: 8.2
[1]; [10]
  pKa: 5.6
E. coli PNP-wt [3]
  Ribosylation Site: mostly N^2
  Vmax (Relative): ~1
E. coli PNP-wt [3]; [12]
  Km: < 10 µM
Calf spleen PNP (wt); ribosylation by R1P, calf-wt PNP, 40 mM HEPES pH 7
  Km: nr
Calf spleen PNP (wt); calf-wt PNP
  Vmax (Relative): < 0.1
Calf spleen PNP (wt)
  ribosylation activity: apparently inactive
Calf PNP N243D; calf PNP N243D
  Vmax (Relative): traces

## c1cn2c(n1)ncc1nc[nH]c12 [Compound 2, N^2,3-etheno-2-aminopurine]
[1]; [11]
  pKa: ~9.5
[1]; [10]
  pKa: 5
E. coli PNP-wt [3]
  Ribosylation Site: predominantly N^2
  Vmax (Relative): 20
Calf spleen PNP (wt); calf-wt PNP
  Ribosylation Site: predominantly N^2
  Vmax (Relative): ~5
Calf spleen PNP (wt)
  ribosylation activity: moderate rate
Calf PNP N243D; calf PNP N243D
  Ribosylation Site: predominantly N^2
  Vmax (Relative): 29
Calf PNP N243D; calf PNP mutated in the active site (N243D)
  ribosylation activity: fairly rapidly ribosylated
E. coli PNP S90A
  Ribosylation Site: predominantly N^2
E. coli PNP S90A; [12]
  Km: ~20 µM
E. coli PNP S90A; [13]
  Vmax (Relative): 23
E. coli PNP D204N
  Ribosylation Site: predominantly N^2
E. coli PNP D204N; [12]
  Km: 12 µM
E. coli PNP D204N; [13]
  Vmax (Relative): 30
E. coli PNP
  quenching of the protein fluorescence at 305 nm: moderate quenching

B1: E. coli PNP (wt) (Escherichia coli K-12) (protein)
chain: T2 sequence (P0ABP8 2-239 limits assumed)
notes: made in house; host or cells: E. coli
[4]; other: E. coli PNP and its mutated forms
  Km: 10 µM
[4]; other: ribosylation by R1P, E. coli-wt PNP, 40 mM HEPES pH 7, pH 7.0
  Km: 11 µM

B2: E. coli PNP-wt (Escherichia coli K-12) (protein)
chain: T2 sequence (P0ABP8 2-239 limits assumed)
notes: as for B1
[5]
  Km: 47 µM
[6]
  Km: ~ 20 μM

B3: calf spleen PNP (wt) (Bos taurus) (protein)
chain: T1 sequence (P55859 1-289)
notes: as for B1
[7]
  Km: ~8 µM

B4: calf PNP-wt (Bos taurus) (protein)
chain: T1 sequence (P55859 1-289)
notes: as for B1
[8]
  Km: 4.6 µM

B5: calf PNP N243D (Bos taurus; N243D) (protein)
chain: T1 sequence (P55859 1-289) with N243D
notes: as for B1
[9]
  Km: 110 µM
